In patent US11898168B2, “Methods of promoting esophageal differentiation of pluripotent stem cells” (The Trustees of Columbia University in the City of New York, priority 2017, dated 2024):

Key:
Type in all cases: cell-based, human
[1] = tested on: hESC RUES2-derived AFE cells; assay: Specification of anterior foregut endoderm (AFE) towards esophageal progenitor cells, day 6-16, gene expression by qPCR/immunostaining
Description: hPSCs were differentiated into endodermal and anterior foregut using a previously described protocol (Huang et al., 2015; Huang et al., 2014). Serum-Free Differentiation (SFD) medium was prepared as follows: 750 ml of reconstituted IMDM (ThermoFisher Scientific), 250 ml of F-12 (Corning), 7.5 ml of BSA (ThermoFisher Scientific), 10 ml of Glutamax (ThermoFisher Scientific), 5 ml of N2 (ThermoFisher Scientific), 10 ml of B27 (ThermoFisher Scientific) and 10 ml of Penicillin/Streptomycin (ThermoFisher Scientific), and adding L-Ascorbic acid (Sigma-Aldrich) and MTG (Sigma-Aldrich) on the day of use to obtain a final concentration of 50 μg/ml and 0.04 μl/ml, respectively. To generate endoderm, hPSCs were detached by Accutase/EDTA and cultured in SFD medium plus 10 μM Rock inhibitor 100 ng/ml Activin A, Y-27632 (Tocris), 2.5 ng FGF2 and 0.5 ng/ml BMP4 (R&D Systems) in 6-well Ultra-Low-Attachment plates (Corning) for 72 hours (day 1-4). At day 4, anterior foregut progenitor cells were further induced by culturing endoderm in SFD medium plus 10 μM SB431542 (Tocris) and 100 ng/ml Noggin (R&D Systems) for 24 hours (day 4-5) and SFD medium plus 10 μM SB431542 and 1 μM IWP-2 (Tocris) for another 24 hours (day 5-6). Cells were maintained at 5% O2/95% N2/5% CO2 from day 1-6.
To induce esophageal progenitor cell differentiation, anterior foregut progenitor cells were cultured from day 6 to day 16 in SFD medium plus 10 μM SB431542 and 50 ng/ml Noggin. From day 16 to day 24, cells were maintained at SFD medium. A previously described protocol was followed to generate lung progenitor cells from AFE (Huang et al., 2015; Huang et al., 2014) in which AFE cells were cultured in 3 μM CHIR99021 (Tocris), 10 ng/ml human FGF10 (R&D Systems), 10 ng/ml human KGF (R&D Systems), 10 ng/ml human BMP4 and 50 nM retinoid acid (RA, Sigma). Cells were cultured at 5% O2/95% N2/5% CO2 at day 6-7 and maintained at 95% air/5% CO2 from day 7 onwards.
For immunofluorescence staining, cells were fixed in 4% paraformaldehyde (PFA) for 15 minutes at room temperature and washed with 1×PBS for three times. Cells were permeabilized with 0.3% Triton X-100 in 1×PBS for 15 minutes. Then cells were incubated in blocking solution (0.3% Triton X-100 plus 2% donkey serum in 1×PBS) for 1 hour. Primary antibodies were added into blocking solution and incubated at 4° C. overnight. The next day, cells were washed with 1×PBS for three times. Secondary antibodies conjugated to Alexa Fluor 488, Cy3, or Alexa Fluor 647 (Jackson Immunoresearch) were incubated for 1 hour. Images were taken using Leica DMI6000 B (Leica Microsystems) or DMi8 (Leica Microsystems) and a Zeiss LSM700 confocal laser scanning microscope. Bright field images were acquired using a Nikon Labophot 2 microscope equipped with a Nikon Digital Sight DS-Ri1 charge-coupled device camera. The thickness and areas composed of KRT13^+ cells were calculated by ImageJ (National Institutes of Health). For X-gal staining, tissues were fixed in 4% paraformaldehyde for 30 minutes and incubated in X-gal solution overnight at 37° C. as previously described (Que et al., 2006).
(§1) Cells were lysed with TRIzol (Invitrogen) and RNA was purified using the RNeasy Mini Kit (QIAGEN). RNA was reversely transcribed to cDNA by the SuperScript III First-Strand SuperMix (Invitrogen). cDNA was quantified by real-time PCR using the iQ SYBR Green Supermix (Bio-Rad) and StepOnePlus™ Real-Time PCR System (Applied Biosystems). The transcript level of each gene was normalized to the ß-actin control using 2(−ΔΔCT) method. Relative gene expression was calculated and reported as fold change compared to the indicated samples using ß-actin normalized transcript level. All qRT-PCR experiments were performed at least triplicate.

hPSC-derived EPCs = assay: Squamous differentiation of purified hPSC-derived EPCs (KRT13, INV, KRT14 levels)
Description: To perform cell surface marker staining, cells were disassociated with 0.05% Trypsin-EDTA (ThermoFisher Scientific) and stained with fluorophore conjugated antibodies in FACS buffer (1×PBS, 2% FBS, 0.2 mM EDTA) for 30 min with live/dead staining dye (LIVE/DEAD™ Fixable Violet Dead Cell Stain Kit, ThermoFisher Scientific) to exclude dead cells. Intracellular staining cells were performed according to the manufacturer's instructions in eBioscience™ Foxp3/Transcription Factor Staining Buffer Set (ThermoFisher Scientific). Fixation and permeabilization was performed at room temperature for 1 hour followed by incubation of primary antibody for 1 hour. Cells were washed with 1×PBS and fluorophore-conjugated secondary antibodies were incubated for 1 hour. Stained cells were analyzed BD FACSCanto (BD Biosciences) data were analyzed with FlowJo software (Ashland, Oregon). Sorted EPCAM^+ ITGß4^+ cells were maintained in the medium containing 5% FBS, 20 ng/ml EGF, 20 ng/ml FGF2 and 10 μM Rock inhibitor Y27632.
as §1
The inventors have previously shown that BMP signaling activation promotes terminal differentiation of esophageal progenitors in the developing and adult esophagus (Jiang et al., 2015; Rodriguez et al., 2010). It was asked whether purified hPSCs-derived EPCs (ESC and iPSC-derived) respond to BMP activation in a similar manner.
(§2) It was then tested whether NOTCH signaling is involved in the differentiation of hPSC-derived EPCs. The iPSC-derived EPCs were treated with 10 μM γ-secretase inhibitor DAPT to block NOTCH signaling. As expected, treatment with DAPT led to downregulation of HESS, HEY1 and HEY2, the downstream targets of NOTCH signaling (Kopan and Ilagan, 2009).

NOTCH signaling = assay: Expression of NOTCH downstream targets in iPSC-derived EPCs; conditions: 10 μM
Description: as §1, §2

[2] = WNT activation in the presence of Noggin and SB431542, FIG. 1F
[3] = 10 μM, iPSC-derived EPCs, vs vehicle, FIG. 6D
[4] = BMP4 treatment vs vehicle, ESC and iPSC-derived EPCs, FIGS. 6A-B

Q: Which results are given for `Cc1ccc2nc(NC(=O)CSc3nc4c(c(=O)n3-c3ccccc3)SCC4)sc2c1` [IWP2]?
A: esophageal specification ([1]; Noggin plus SB431542 in combination with 0.5, 1 or 2 μM IWP2, day 6 to day 16, gene expression at day 16, FIG. 1I): does not affect; p63 expression ([1]; added to culture treated with Noggin and SB431542 at day 6-16, FIG. 1I): did not further promote

Q: For `Cc1c[nH]c(-c2cnc(NCCNc3ccc(C#N)cn3)nc2-c2ccc(Cl)cc2Cl)n1` [GSK inhibitor], which “levels of the general foregut marker SOX2” value [1, 2] is on record?
A: Its value is “remained unchanged”.

Q: What about the “levels of the posterior foregut marker HNF6” value [1, 2] of the same molecule?
A: Its value is “increased”.

Q: And the “levels of the posterior foregut marker PROX1” value [1, 2]?
A: Its value is “increased”.

Q: What about the p63 expression [1, 2] of the same molecule?
A: Its p63 expression is “reduced p63 expression in a dose-dependent manner”.

Q: Which “initial EPC commitment from the AFE” value ([1]; DAPT applied during PSC differentiation from AFE to EPC, FIG. 6C) does the source give for `C[C@H](NC(=O)Cc1cc(F)cc(F)c1)C(=O)N[C@H](C(=O)OC(C)(C)C)c1ccccc1` [DAPT] here?
A: Its value is “did not affect”.

Q: And the “expression of INV at the transcription and protein levels” value (hPSC-derived EPCs; [3])?
A: Its value is “reduced expression”.

Q: What about the “expression of KRT13 at the transcription and protein levels” value (hPSC-derived EPCs; [3]) of the same molecule?
A: The value was “reduced expression”.

Q: What about the “HESS expression (downstream target of NOTCH signaling)” value (NOTCH signaling) of the same molecule?
A: Its value is “downregulation”.

Q: What about the “HEY1 expression (downstream target of NOTCH signaling)” value (NOTCH signaling) of the same molecule?
A: Its value is “downregulation”.

Q: What about the “HEY2 expression (downstream target of NOTCH signaling)” value (NOTCH signaling) of the same molecule?
A: Its value is “downregulation”.

B1: DKK1: WNT inhibitor (protein, UniProt O94907 32-266, looked up)
Dickkopf-related protein 1: TLNSVLNSNAIKNLPPPLGGAAGHPGSAVSAAPGILYPGGNKYQTIDNYQPYPCAEDEECGTDEYCASPTRGGDAGVQICLACRKRRKRCMRHAMCCPGNYCKNGICVSSDQNHFRGEIEETITESFGNDHSTLDGYSRRTTLSSKMYHTKGQEGSVCLRSSDCASGLCCARHFWSKICKPVLKEGQVCTKHRRKGSHGLEIFQRCYCGEGLSCRIQKDHHQASNSSRLHTCQRH
Q: For B1, which p63 expression ([1]; WNT inhibitor alone, hPSCs, FIG. 1E) is on record?
A: The p63 expression was “insufficient”.

B2: Noggin: BMP inhibitor (R&D Systems) (protein, UniProt Q13253 28-232, looked up)
Noggin: QHYLHIRPAPSDNLPLVDLIEHPDPIFDPKEKDLNETLLRSLLGGHYDPGFMATSPPEDRPGGGGGAAGGAEDLAELDQLLRQRPSGAMPSEIKGLEFSEGLAQGKKQRLSKKLRRKLQMWLWSQTFCPVLYAWNDLGSRFWPRYVKVGSCFSKRSCSVPEGMVCKPSKSVHLTVLRWRCQRRGGQRCGWIPIQYPIISECKCSC
Q: For B2, which “AFE differentiation into p63+ NKX2.1- EPCs” value ([1]; Noggin treatment alone at day 6-16, FIG. 1E) is on record?
A: The value was “insufficient”.

B3: BMP4: BMP signaling activator, growth factor (R&D Systems) (protein, UniProt P12644 293-408, looked up)
Bone morphogenetic protein 4: SPKHHSQRARKKNKNCRRHSLYVDFSDVGWNDWIVAPPGYQAFYCHGDCPFPLADHLNSTNHAIVQTLVNSVNSSIPKACCVPTELSAISMLYLDEYDKVVLKNYQEMVVEGCGCR
Q: Which “differentiation of hPSC-derived EPCs” value (hPSC-derived EPCs; BMP4 treatment) does the source give for B3 here?
A: Its value is “promotes”.

Q: And the “levels of Involucrin (INV)” value (hPSC-derived EPCs; [4])?
A: The value was “significantly increase”.

Q: What about the “levels of KRT13” value (hPSC-derived EPCs; [4]) of the same molecule?
A: Its value is “significantly increase”.

Q: What about the “levels of KRT14” value (hPSC-derived EPCs; BMP4 treatment, FIG. 6B) of the same molecule?
A: The value was “increased”.
